# “And” between values parts separate entries of the source, which are not always exact repeats. Equal entries are not always repeated. Where two headings read alike, the source gives them in different places.
# How the values were obtained:
# ovulation in the rat = experiment: Assays of antagonists for oral activity (inhibition of ovulation in the rat); format: in vivo
# Experimental: (§1) Biological Assays. The peptides were assayed for activity to inhibit ovulation in rats, as described [J. Humphries, Y.-P. Wan, K. Folkers and C. Y. Bowers; J. Med. Chem. 21, 120-123 (1978)]. The procedure for assay when the antagonist is administered orally is the same except for the route of administration.
# Analogs I, XI and XII were also tested by the oral route of administration for inhibition of ovulation in the rat, since the projected human application would be by oral administration. The data in Table 3 resulted from the administration at noon. When the administration is at 2:30 PM, effectiveness is reduced, presumably because of the LH surge. Analog I caused 100% AOA at a 2 mg dosage with administration at noon and 71% AOA/2 mg and 50% AOA/1 mg by administration at 2:30 PM Nekola et al. [Science 218, 160-162 (1982)] have reported on the oral activity of I under diverse conditions.
# ovulation in rats [1] = experiment: Inhibition of ovulation in rats, subcutaneous administration; format: in vivo, rat; details: for inhibition of ovulation: 40 hrs before anticipated ovulation
# Experimental: as §1
# ovulation in rats [2] = details: data of Coy et al., cited from earlier work
substance,measurement,setting,value
"[N--Ac--3,4-diCl--D-Phe^1,pCl--D-Phehu 2,D-3-Pal^3,D-Arg^7, D-Ala^10 ]--LHRH [Analog XII]",No. Ova.,"ovulation in the rat; 250 μg, administered at noon",12.2 ± 1.0
same,Rats Ovu./No. Rats,"ovulation in the rat; 250 μg, administered at noon",5/5
same,% AOA,"ovulation in the rat; 500 μg, administered at noon",63%
same,No. Ova.,"ovulation in the rat; 500 μg, administered at noon",5.6 ± 2.7
same,Rats Ovu./No. Rats,"ovulation in the rat; 500 μg, administered at noon",3/8
same,Rats ovu./No. rats,ovulation in rats [1]; dose 0.25 μg,9/9
same,% AOA (% inhibition of ovulation in rats),ovulation in rats [1]; dose 0.5 μg,82%
same,Rats ovu./No. rats,ovulation in rats [1]; dose 0.5 μg,9/11
"[N--Ac-- (pCl--D-Phe)^1,2,D-Trp^3,D-3-Pal^6,D-Ala^10 ]--LHRH [Analog VII]",% AOA (% inhibition of ovulation in rats),ovulation in rats [1]; dose 2.0 μg,13%
"[N--Ac--(pCl--D-Phe)^1,2,D-2-Pal^3,D-Arg^6,D-Ala^10 ]--LHRH [Analog III]",% AOA (% inhibition of ovulation in rats),ovulation in rats [1]; dose 1.0 μg,29%
same,Rats ovu./No. rats,ovulation in rats [1]; dose 1.0 μg,5/7
"[N--Ac--(pCl--D-Phe)^1,2,D-3-Pal^3,6 ]--LHRH [Analog X]",% AOA (% inhibition of ovulation in rats),ovulation in rats [1]; dose 1.0 μg,17%
same,Rats ovu./No. rats,ovulation in rats [1]; dose 1.0 μg,5/6
same,% AOA (% inhibition of ovulation in rats),ovulation in rats [1]; dose 3.0 μg,86%
same,Rats ovu./No. rats,ovulation in rats [1]; dose 3.0 μg,1/7
"[N--Ac--(pCl--D-Phe)^1,2,D-3-Pal^3,6,D-Ala^10 ]--LHRH [Analog V]",% AOA (% inhibition of ovulation in rats),ovulation in rats [1]; dose 1.0 μg,50%
same,Rats ovu./No. rats,ovulation in rats [1]; dose 1.0 μg,5/10
same,% AOA (% inhibition of ovulation in rats),ovulation in rats [1]; dose 3.0 μg,100%
same,Rats ovu./No. rats,ovulation in rats [1]; dose 3.0 μg,0/7
"[N--Ac--(pCl--D-Phe)^1,2,D-3-Pal^3,D-Arg^6,D-Abu^10 ]--LHRH [Analog IX]",% AOA (% inhibition of ovulation in rats),ovulation in rats [1]; dose 1.0 μg,10%
same,Rats ovu./No. rats,ovulation in rats [1]; dose 1.0 μg,9/10
"[N--Ac--(pCl--D-Phe)^1,2,D-3-Pal^3,D-Arg^6,D-Ala^10 ]--LHRH [Analog II]",% AOA (% inhibition of ovulation in rats),ovulation in rats [1]; dose 0.5 μg,58%
same,Rats ovu./No. rats,ovulation in rats [1]; dose 0.5 μg,8/19
same,% AOA (% inhibition of ovulation in rats),ovulation in rats [1]; dose 1.0 μg,78%
same,Rats ovu./No. rats,ovulation in rats [1]; dose 1.0 μg,3/14
"[N--Ac--(pCl--D-Phe)^1,2,D-3-Pal^3,D-Trp^6,D-Ala^10 ]--LHRH [Analog VIII]",Rats ovu./No. rats,ovulation in rats [1]; dose 1.0 μg,10/10
"[N--Ac--(pCl--D-Phe)^1,2,D-4-Pal^3,6,D-Ala^10 ]--LHRH [Analog VI]",% AOA (% inhibition of ovulation in rats),ovulation in rats [1]; dose 6.0 μg,63% and 62.5%
same,Rats ovu./No. rats,ovulation in rats [1]; dose 6.0 μg,3/8
"[N--Ac--(pCl--D-Phe)^1,2,D-4-Pal^3,D-Arg^6,D-Ala^10 ]--LHRH [Analog IV]",% AOA (% inhibition of ovulation in rats),ovulation in rats [1]; dose 0.5 μg,14%
same,Rats ovu./No. rats,ovulation in rats [1]; dose 0.5 μg,6/7
same,% AOA (% inhibition of ovulation in rats),ovulation in rats [1]; dose 6.0 μg,33%
same,Rats ovu./No. rats,ovulation in rats [1]; dose 6.0 μg,6/9
"[N--Ac--(pCl--D-Phe)^1,2,D-Trp^3,D-Arg^6,D-Ala^10 ]--LHRH [Analog I, reference compound]",% AOA,"ovulation in the rat; 1 mg, administered at 2:30 PM",50%
same,% AOA,"ovulation in the rat; 2 mg, administered at 2:30 PM",71%
same,% AOA,"ovulation in the rat; 2 mg, administered at noon",100%
same,No. Ova.,"ovulation in the rat; 2 mg, administered at noon",0
same,Rats Ovu./No. Rats,"ovulation in the rat; 2 mg, administered at noon",0/8
same,% AOA (% inhibition of ovulation in rats),ovulation in rats [1]; dose 1.0 μg,83%
same,Rats ovu./No. rats,ovulation in rats [1]; dose 1.0 μg,1/6
same,% AOA (% inhibition of ovulation in rats),ovulation in rats [2]; dose 0.75 μg,40%
same,Rats ovu./No. rats,ovulation in rats [2]; dose 0.75 μg,6/10
same,% AOA (% inhibition of ovulation in rats),ovulation in rats [2]; dose 1.5 μg,100%
same,Rats ovu./No. rats,ovulation in rats [2]; dose 1.5 μg,0/10
"[N--Ac--D-2-Nal^1,pCl--D-Phe^2,D-3-Pal^3,D-Arg^6, D-Ala^10 ]--LHRH [Analog XI]",% AOA,"ovulation in the rat; 250 μg, administered at noon",10%
same,No. Ova.,"ovulation in the rat; 250 μg, administered at noon",13.0 ± 1.8
same,Rats Ovu./No. Rats,"ovulation in the rat; 250 μg, administered at noon",9/10
same,% AOA,"ovulation in the rat; 500 μg, administered at noon",56%
same,No. Ova.,"ovulation in the rat; 500 μg, administered at noon",6.1 ± 2.5
same,Rats Ovu./No. Rats,"ovulation in the rat; 500 μg, administered at noon",4/9
same,inhibition of ovulation,ovulation in rats [1]; 10 μg,100%
same,inhibition of ovulation,ovulation in rats [1]; 30 μg,100%
same,inhibition of ovulation,ovulation in rats [1]; 100 μg,100%
same,% AOA (% inhibition of ovulation in rats),ovulation in rats [1]; dose 0.25 μg,57%
same,Rats ovu./No. rats,ovulation in rats [1]; dose 0.25 μg,3/7
same,% AOA (% inhibition of ovulation in rats),ovulation in rats [1]; dose 0.5 μg,100%
same,Rats ovu./No. rats,ovulation in rats [1]; dose 0.5 μg,0/9
